Results published in patent US8193150B2, “Improving vascular function with an inactivating mutant of a TRPC channel protein” (Sanofi, priority 2005, dated 2012).
Where a name gives a salt, the structure may show the parent alone.

Columns and labels:
TRPC3 = biological target: T1, TRPC3 (Homo sapiens, UniProt Q13507); assay: FLIPR Ca2+ fluorescence assay in inducible Flp-In T-REx-TRPC3 HEK 293 cells; assay type: cell-based; conditions: mean±SEM; for Fluorescence changes (F/F0): 200 nM trypsin, t=60 sec, n=9
T1 construct: expressed in transfected cells
T1 sequence (Q13507 74-921): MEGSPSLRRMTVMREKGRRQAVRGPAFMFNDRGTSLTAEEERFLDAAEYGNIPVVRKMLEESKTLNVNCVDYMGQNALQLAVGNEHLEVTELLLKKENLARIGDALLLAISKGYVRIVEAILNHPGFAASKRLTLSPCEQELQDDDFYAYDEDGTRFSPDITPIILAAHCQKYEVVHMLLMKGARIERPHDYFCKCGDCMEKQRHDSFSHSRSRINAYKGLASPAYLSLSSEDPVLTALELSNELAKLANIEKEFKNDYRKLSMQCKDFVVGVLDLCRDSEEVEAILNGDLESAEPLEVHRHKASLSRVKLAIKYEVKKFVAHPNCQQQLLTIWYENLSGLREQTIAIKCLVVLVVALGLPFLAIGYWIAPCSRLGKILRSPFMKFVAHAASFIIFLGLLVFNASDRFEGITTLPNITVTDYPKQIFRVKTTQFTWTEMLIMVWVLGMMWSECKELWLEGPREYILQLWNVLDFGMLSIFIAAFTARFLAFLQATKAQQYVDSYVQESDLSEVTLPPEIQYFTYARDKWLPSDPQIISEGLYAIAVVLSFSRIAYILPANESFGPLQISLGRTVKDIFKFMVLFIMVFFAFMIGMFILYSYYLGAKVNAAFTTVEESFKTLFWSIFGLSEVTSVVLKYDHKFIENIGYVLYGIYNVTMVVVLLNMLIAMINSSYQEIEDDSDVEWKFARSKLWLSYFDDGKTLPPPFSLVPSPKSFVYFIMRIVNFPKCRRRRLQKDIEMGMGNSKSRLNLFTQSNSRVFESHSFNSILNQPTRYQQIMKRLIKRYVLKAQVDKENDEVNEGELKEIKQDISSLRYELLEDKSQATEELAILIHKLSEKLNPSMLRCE
From the text: (§1) To develop an assay for the identification of TRPC channel modulators, recombinant HEK 293 cell lines were produced using the Flp-In T-REx system (Invitrogen, Karsruhe, Germany) that express TRPC3 (accession # U47050) or TRPC6 (accession # AF080394) cDNAs under the control of an inducible promoter. Channel cDNAs were amplified by standard techniques and cloned into pcDNA5/FRT/TO (Invitrogen, Karlsruhe, Germany). After transfection of Flp-In T-Rex 293 cells with the channel constructs stable cell lines were selected with hygromycin. Cells were maintained according to the manufactures instructions and channel expression of was induced by addition of 1 μg/ml doxycycline for 20-30 h. Cells were plated into 96 well poly-d-lysine coated black walled clear bottom microtiter plates (BD Biosciences, Bedford, Mass.) at a density of 40000-50000 cells/well 20-30 h before experiments. […] Ca^2+ measurements were performed using a 96 well Fluorescence Imaging Plate Reader (FLIPR), (Molecular Devices Corporation, Sunnyvale, Calif.). […]
(§2) Fluorescence changes in fluo-4 loaded cells were measured using FLIPR II. […] Shown are mean fluorescence values±SEM from 9 wells each. Fluorescence values were normalized to the mean baseline fluorescence (F0).
(§3) To identify modulators of TRPC3 or TRPC6 with the assays described above induced cells were used and test compounds are added to the wells before or after application of OAG. The expected effect of inhibitors would be a reduction of the fluorescence increase. Channel activators would lead to a further increase of the OAG-evoked signal or induce an OAG-independent fluorescence increase. […]
(§4) Fluorescence changes induced by 30 μM OAG in TRPC3-and TRPC6 expressing cells were measured in the presence of the given concentrations of SKF 96365. […] Inhibition is expressed as % of control fluorescence in the absence of SKF 96365. […]

TRPC6 = biological target: T2, TRPC6 (Homo sapiens, UniProt Q9Y210); assay: FLIPR Ca2+ fluorescence assay in inducible Flp-In T-REx-TRPC6 HEK 293 cells; assay type: cell-based; conditions: mean±SEM; for Fluorescence changes (F/F0): 200 nM trypsin, t=60 sec, n=12
T2 construct: expressed in transfected cells
T2 sequence (Q9Y210 1-931): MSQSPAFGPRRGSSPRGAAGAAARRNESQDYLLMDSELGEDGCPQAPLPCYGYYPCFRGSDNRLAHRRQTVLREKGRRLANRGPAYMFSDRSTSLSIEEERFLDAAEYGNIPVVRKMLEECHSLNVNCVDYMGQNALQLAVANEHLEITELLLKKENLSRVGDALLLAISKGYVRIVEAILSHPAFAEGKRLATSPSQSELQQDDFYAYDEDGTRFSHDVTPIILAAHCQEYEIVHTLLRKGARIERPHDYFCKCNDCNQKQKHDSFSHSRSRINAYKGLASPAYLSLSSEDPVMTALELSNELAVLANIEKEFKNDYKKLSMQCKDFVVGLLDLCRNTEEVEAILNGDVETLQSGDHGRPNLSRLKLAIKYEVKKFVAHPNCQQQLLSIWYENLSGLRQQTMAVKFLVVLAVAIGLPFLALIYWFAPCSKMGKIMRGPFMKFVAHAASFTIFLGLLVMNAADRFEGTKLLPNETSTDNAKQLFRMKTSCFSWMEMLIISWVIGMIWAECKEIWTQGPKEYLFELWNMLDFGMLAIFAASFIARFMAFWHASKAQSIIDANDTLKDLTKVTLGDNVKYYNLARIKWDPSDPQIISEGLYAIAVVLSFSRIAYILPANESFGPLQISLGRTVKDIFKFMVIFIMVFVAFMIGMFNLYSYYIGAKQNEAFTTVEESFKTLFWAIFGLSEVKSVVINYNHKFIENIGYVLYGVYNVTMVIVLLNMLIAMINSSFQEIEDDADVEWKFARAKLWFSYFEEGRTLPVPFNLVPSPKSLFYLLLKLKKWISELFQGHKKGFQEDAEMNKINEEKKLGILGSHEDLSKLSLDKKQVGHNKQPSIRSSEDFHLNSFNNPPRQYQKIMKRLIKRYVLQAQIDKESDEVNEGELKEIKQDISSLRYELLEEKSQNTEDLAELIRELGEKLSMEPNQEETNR
From the text: as §1, §2, §3, §4

## trypsin
TRPC3; induced Flp-In T-REx-TRPC3 cells
  Fluorescence changes (F/F0): 2.71 ± 0.022 (n = 9)
TRPC3; non-induced Flp-In T-REx-TRPC3 cells
  Fluorescence changes (F/F0): 1.65 ± 0.034 (n = 9)
TRPC6; induced Flp-In T-REx-TRPC6 cells
  Fluorescence changes (F/F0): 2.26 ± 0.05 (n = 12)
TRPC6; non-induced Flp-In T-REx-TRPC6 cells
  Fluorescence changes (F/F0): 0.88 ± 0.009 (n = 12)

## COc1ccc(CCCOC(Cn2ccnc2)c2ccc(OC)cc2)cc1 (stereo not drawn) [SKF 96365, 1-(β-[3-(4-methoxyphenyl)propoxy]-4-methoxyphenethyl)-1H-imidazole-HCl]
TRPC3; doxycycline-induced cells, 30 μM OAG, n=8, read-out: IC50, inhibition of OAG-activated fluorescence responses in TRPC3 expressing cells
  IC50: 1800 nM
TRPC6; doxycycline-induced cells, 30 μM OAG, n=8, read-out: IC50, inhibition of OAG-activated fluorescence responses in TRPC6 expressing cells
  IC50: 5.04 ± 0.17 µM
